Experimental data taken from article PMC9161444, “In-Membrane Nanostructuring of Cationic Amphiphiles Affects Their Antimicrobial Efficacy and Cytotoxicity: A Comparison Study between a De Novo Antimicrobial Lipopeptide and Traditional Biocides” (Langmuir, 2022).
Values after ≈ are worked out from the molar mass of the structure shown. Residues, ends and D or L forms follow the SMILES beside them. No end group written: not given here. *: point of attachment. Myristoyl = CCCCCCCCCCCCCC(=O)*

What was measured:
[1] = previous findings by Lu et al.; cited from earlier work
Text: From the best fitted surface tension parameters (listed in Table S2), the area per molecule (APM) could be calculated from eq 4 for each amphiphile at its respective CAC. […] This is in line with the previous findings by Lu et al., which stated that APMs of C10TAB, C12TAB, C14TAB, C16TAB, and C18TAB adsorbed on the surface of water were 55 ± 3, 50 ± 2, 48 ± 3, 43 ± 3, and 43 ± 3 Å^2, respectively.[29]−[33] Each lipopeptide molecule occupied around 79 ± 10 Å^2 at ...

hRBCs = assay type: cell-based, human
Experimental: hRBCs were purchased from Rockland Immunochemical Inc. Hemolytic assays were performed in 96-well plates in an environment of PBS, as previously described.[13],[23] Amphiphiles were half diluted serially at first, resulting in 100 μL of solution in each well, and mixed subsequently with 100 μL of 4% hRBC suspension. Wells filled by PBS mixed with hRBC were employed as positive controls, while hRBCs with added 0.1% Triton X-100 were negative controls. After incubating at 37 °C for 1 h, the plates were centrifuged at 1000 times gravity for 5 min. The supernatants in each well, which contained the released hemoglobin, were transferred to another plate, and their optical density at 450 nm (OD450) was measured using an absorbance microplate reader. The percentage of hemolysis H for each sample at a certain concentration c was obtained by Hc = (OD450,c – OD450,positive control)/(OD450,negative control – OD450,positive control) × 100%. Figures for percentage leakage against concentration for each sample were plotted to determine the approximate range of 50% hemolysis, and the relevant concentration was the half maximal effective concentration (EC50) of the sample. Each experiment was repeated at least three times with each containing three replicates. The dose–response curves were again obtained by applying sigmoidal functional fits to obtain the EC50 values.

S. aureus (ATCC 6538) = assay type: cell-based, Staphylococcus aureus; conditions: ATCC 6538, 24 h
Experimental: (§1) E. coli (ATCC 25922), S. aureus (ATCC 6538), and C. albicans SC5314 (ATCC MYA-2876) were purchased from the American Type Culture Collection (ATCC). The two bacterial strains, E. coli and S. aureus, were cultured in Mueller Hinton broth at 37 °C; while the yeast strain, C. albicans, was grown in RPMI 1640 medium at 30 °C. The microdilution method was employed to determine MICs of the amphiphiles against the microorganism strains listed above.[21] Solutions of lipopeptides and biocides were half-diluted serially in 96-well plates using PBS buffer containing 137 mM NaCl, 2.7 mM KCl, 8.1 mM Na2HPO4, and 1.9 mM KH2PO4 for E. coli and S. aureus and using RPMI 1640 for C. albicans. Overnight incubations of the strains, in each respective growth medium, were then inoculated into each well, giving final concentrations of 10^6 CFU/mL for E. coli and S. aureus and 10^5 CFU/mL for C. albicans. Culture media without microorganisms and amphiphiles were employed as positive controls, while fresh microorganism cultures without amphiphiles were used as negative controls. Each plate has both positive controls and negative controls. The plates were then incubated at an appropriate temperature (stated above) for 24 h for the bacterial strains and 48 h for the yeast strain. MICs of each sample were first determined by eye. A more quantitative analysis was carried out by measuring optical densities at 600 nm (OD600) of each well using a Sunrise absorbance microplate reader (Tecan Group Ltd.). Inhibitory ratios (IRs) of each sample at a given concentration against a specific strain, denoted as IRi, were calculated by IRi = (OD600,negative control – OD600,i)/(OD600,negative control – OD600,positive control) × 100%. All experiments were repeated at least three times with each group containing three replicates. To better analyze concentration–IR relationships, sigmoidal function fittings were employed to generate the best fitted dose response curve for each situation.

[2] = test system: C. albicans SC5314 (ATCC MYA-2876); assay type: cell-based, Candida albicans; conditions: SC5314, 48 h
Experimental: as §1

E. coli (ATCC 25922) = assay type: cell-based, Escherichia coli; conditions: ATCC 25922, 24 h
Experimental: as §1

[3] = test system: Human dermal fibroblasts cells (adult, HDFa cells); assay type: cell-based; conditions: 24 h
Experimental: (§2) Human dermal fibroblasts cells (adult, HDFa cells) and NIH 3T3 fibroblasts cells (3T3 cells, ATCC-1658) were cultured at 37 °C in Dulbecco’s modified Eagle medium (ATCC30-2002, added with 10% heat-inactivated fetal bovine serum) with a continuous supply of CO2 at a 5% level. MTT assays were carried out to examine in vitro cytotoxicity of the amphiphiles.[22] Cells were first inoculated in flat-bottom 96-well plates, rendering 8 × 10^3 cells in 100 μL of medium for each well, and were incubated for 24 h. The cells were mixed with 100 μL of a solution of an amphiphile with 2 times the selected concentrations. Cells were then exposed to the solutions of each amphiphile for 24 h, after which 10 μL of 5 mg/mL MTT solution was added into each well, and the reaction was allowed for 2 h. 200 μL of dimethyl sulfoxide was then added to each well to dissolve the transformed MTT formazan. Light absorbance of the samples was measured using a Thermo Scientific Varioskan LUX at 570 nm. Cell samples 100% viable and 100% dead were employed as the positive control and negative control, respectively. Dose response curves were obtained by applying sigmoidal function fittings to obtain 50% effective concentrations (EC50).

[4] = test system: NIH 3T3 fibroblasts cells (3T3 cells, ATCC-1658); assay type: cell-based; conditions: 24 h
Experimental: as §2

[5] = Analytical RP-HPLC retention time as measure of hydrophobicity; assay type: physicochemical; conditions: gradient of eluents
Experimental: Lipopeptide C14KKGGII was synthesized in the form of acyl chain hydrogenated h-C14KKGGII and acyl chain deuterated d-C14KKGGII. The lipopeptide samples were prepared using a Liberty Blue automated microwave peptide synthesizer, where the standard Fmoc solid-phase strategy was followed. Dimethylformamide (DMF) was used as the solvent during the whole process. Rink-amide resin was employed as a loading anchor to synthesize C-terminal amidated lipopeptides and was swelled for 5 min in DMF before synthesis. After the removal of Fmoc groups on resins, amino acids (Fmoc-Gly-OH, Fmoc-Ile-OH, and Fmoc-Lys-OH in this study) were coupled to the solid phase in succession from the C-terminal to the N-terminal, assisted by the addition of ethyl 2-cyano-2-(hydroxyimino)acetate (OXYMA) and N,N′-diisopropylcarbodiimide (DIC) at 90 °C for 4 min. Fmoc protecting groups on amino acids were removed before further linking using 20% piperidine in DMF. Hydrogenated or deuterated myristic acid was added onto the chain in the last step using the same method. A cleavage mixture of trifluoroacetic acid (TFA), water, and tri-isopropylsilane (TIS) (94/4/2, v/v/v) was employed for the reaction with lipopeptide-loaded resins for 3 h at ambient temperature, removing the side chain protecting groups on the amino acids and releasing lipopeptides from the resin beads. […]

CCCCCCCCCC[N+](C)(C)C.[Br-] [C10TAB]
APM adsorbed on the surface of water [1]: 55 ± 3 Å^2

CCCCCCCCCCCCCC(=O)N[C@@H](CCCCN)C(=O)N[C@@H](CCCCN)C(=O)NCC(=O)NCC(=O)N[C@H](C(=O)N[C@H](C(N)=O)[C@@H](C)CC)[C@@H](C)CC [C14KKGGII, CH3(CH2)12CO-Lys-Lys-Gly-Gly-Ile-Ile-NH2] (Myristoyl-KKGGII-NH2)
concentration at which hemolysis starts (hRBCs): 16 µM
EC50 (hRBCs; 1 h): 180 ± 30 µM
MIC, S. aureus (S. aureus (ATCC 6538)): 9 ± 3 µM (≈ 7.42 µg/mL)
MIC, C. albicans [2]: 12 ± 2 µM (≈ 9.89 µg/mL)
MIC, E. coli (E. coli (ATCC 25922)): 16 ± 6 µM (≈ 13.2 µg/mL)
EC50 [3]: 110 ± 30 µM
EC50 [4]: 66 ± 6 µM

CCCCCCCCCCCCCCCC[N+](C)(C)C.[Br-] [C16TAB]
APM adsorbed on the surface of water [1]: 43 ± 3 Å^2

CCCCCCCCCCCCCCCCCC[N+](C)(C)C.[Br-] [C18TAB]
APM adsorbed on the surface of water [1]: 43 ± 3 Å^2

CD3(CD2)12CO-KKGGII-NH2 [dC14KKGGII, acyl chain deuterated C14KKGGII]
RP-HPLC retention time (comparison of hydrophobicity) [5]: 25.6 min

KKGGII-NH2 [KKGGII, KKGGII-NH2]
RP-HPLC retention time (comparison of hydrophobicity) [5]: 15.4 min
